Laboratory results from patent publication US9149040B2, “Synergistic pesticidal compositions and related methods” (Dow AgroSciences LLC, priority 2013, dated 2015).

System: diamondback moth, Plutella xylostella
Test: Diamondback moth bioassay on track-sprayed cabbage plants/leaf discs, percent control
Type: in vivo
Procedure: Three second-instar diamondback moth, Plutella xylostella, were infested onto each leaf disc. […] The “Colby's Expected Action” was calculated using Colby's equation as discussed previously.

| SMILES | % Control Three Days After Treatment (compound I alone, dose rate 0.000625 weight %) [%] | % Control Three Days After Treatment (compound I alone, dose rate 0.000625 weight %, listed as compound I) | % Control Three Days After Treatment (compound I alone, dose rate 0.0025 weight %, second-instar larvae, 400 L/Ha spray) | % Control Three Days After Treatment (flonicamid alone, dose rate 0.000039 weight %) [%] | % Control Three Days After Treatment (flonicamid alone, dose rate 0.000156 weight %) [%] |
| --- | --- | --- | --- | --- | --- |
| CCN(C(=O)CCSCCC(F)(F)F)c1cn(-c2cccnc2)nc1Cl [Compound I, N-(3-chloro-1-(pyridin-3-yl)-1H-pyrazol-4-yl)-N-ethyl-3-((3,3,3-trifluoropropyl)thio)propanamide] | 0 | no control | no control |  |  |
| N#CCNC(=O)c1cnccc1C(F)(F)F [Flonicamid, N-(cyanomethyl)-4-(trifluoromethyl)-3-pyridinecarboxamide, reference compound] |  |  |  | 4.17 | 4.17 |
